In patent US20240408169A1 (priority 2023, published 2024):
pIC50: −log10 of the molar value. *1 amine or outer side, *2 acyl side, *3 side chain or, on linkers, in order; H or OH if unused. Where a SMILES comes first, the peptide text is derived from it. Bridges are numbered along the chain shown (N, C = ends). [ ]: non-standard residue; d: D form. The star is where a group is joined. NMePhe(2-(4-MorPh),5-Cl) = CN[C@@H](Cc1cc(Cl)ccc1-c1ccc(N2CCOCC2)cc1)C(=O)O; X128 = CC(C)C(=O)N1C2C=C(c3ccc(F)cc3C[C@@H](C(=O)[*:2])N(C)[*:1])CC1COC2; X185 = CN([C@@H](Cc1cc(Cl)ccc1-c1ccc(N2CCOC(C)(C)C2)cc1)C(=O)[*:2])[*:1]; X145 = CN1CCN(c2ccc(-c3ccc(F)cc3C[C@@H](C(=O)[*:2])N(C)[*:1])cc2F)CC1; X147 = CCSc1ccc(-c2ccc(Cl)cc2C[C@@H](C(=O)[*:2])N(C)[*:1])cn1; NMehhhLys(Me) = CN([C@@H](CCCCCCCN(C)[*:3])C(=O)[*:2])[*:1]; X176 = CN([C@@H](Cc1cc(F)ccc1-c1cccnc1)C(=O)[*:2])[*:1]; NMe(hhhLys) = CN([C@@H](CCCCCCCN[*:3])C(=O)[*:2])[*:1]; X164 = C=C(C)c1ccc(Cl)cc1C[C@@H](C(=O)[*:2])N(C)[*:1]; cBuCO(3,3-F2-1-CF3) = O=C(C1(C(F)(F)F)CC(F)(F)C1)*; Pro(trans-4-F) = O=C(O)[C@@H]1C[C@@H](F)CN1; Gly(cPr) = N[C@H](C(=O)O)C1CC1

Tests used:
CyclinB1/CDK1 = biological target: T1, CyclinB1/CDK1 (Homo sapiens, UniProt P14635); assay: Fluorescence Polarization (FP) competitive binding assay, Cyclin B1/Cdk1; details: 10 nM Cyclin B1/Cdk1, 2 nM FAM probe; average of 2-3 independent experiments; read-out: Cyclin B FP IC50;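 further: fluorescence polarization read after equilibration at room temperature, with IC50 taken from serially diluted dose-response curves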
T1 construct: purchased Eurofins, discovery 14-450

CyclinA2/CDK2 = biological target: T2, CyclinA2/CDK2 (Homo sapiens, UniProt P20248); assay: Fluorescence Polarization (FP) competitive binding assay, Cyclin A2/Cdk2; details: 8 nM Cyclin A2/Cdk2, 2 nM FAM probe; average of 2-3 independent experiments; read-out: Cyclin A FP IC50;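 further: plates equilibrated two hours at room temperature before polarization reading, IC50 fitted from eight-concentration compound titration curves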
T2 construct: purchased CRELUX Protein Services

CyclinE1/CDK2 = biological target: T3, CyclinE1/CDK2 (Homo sapiens, UniProt P24864); assay: Fluorescence Polarization (FP) competitive binding assay, Cyclin E1/Cdk2; details: 10 nM Cyclin E1/Cdk2, 2 nM FAM probe; average of 2-3 independent experiments; read-out: Cyclin E FP IC50;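 further: readings taken after two-hour equilibration at room temperature in HEPES buffer with NaCl, DTT, NP-40 and BSA, IC50 fitted from eight-concentration serial dilution series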
T3 construct: purchased Eurofins, discovery 14-475

NCI-H1048 cells = assay: MTT proliferation assay, NCI-H1048; format: cell-based; details: 5 days compound exposure, 1:3 serial dilution starting at 10 μM;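 further: Dose-response in 96-well plates over 8 or 10 concentration points, with exposure spanning 3-4 cell doublings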
OVCAR3 cells = assay: MTT proliferation assay, OVCAR3; format: cell-based; details: 5 days compound exposure, 1:3 serial dilution starting at 10 μM;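 further: compound given as an 8- or 10-point series, one day after plating, with exposure covering roughly 3-4 cell doublings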

`CC(C)C[C@@H]1NC(=O)[C@@H](N(C)C(=O)[C@@H](NC(=O)[C@@H]2C[C@@H](F)CN2C(=O)C2(C(F)(F)F)CC(F)(F)C2)C2CC2)CCCCCCCN(C)C(=O)[C@H](Cc2cc(F)ccc2-c2ccc(N3CCN(C)CC3)c(F)c2)N(C)C1=O` [Example 401] ({cBuCO(3,3-F2-1-CF3)}-[Pro(trans-4-F)][Gly(cPr)][NMehhhLys(Me)]L[X145]; lactam 3-C) showed a pIC50 (CyclinB1/CDK1) of 7.70, a pIC50 (CyclinA2/CDK2) of 7.70 and a pIC50 (CyclinE1/CDK2) of 6.42. For the same compound, the GI50 (NCI-H1048 cells) was 10 nM and the GI50 (OVCAR3 cells) was 10 nM.

With `CC(C)C[C@@H]1NC(=O)[C@@H](N(C)C(=O)[C@@H](NC(=O)[C@@H]2C[C@@H](F)CN2C(=O)C2(C(F)(F)F)CC(F)(F)C2)C2CC2)CC=CCCCCN(C)C(=O)[C@H](Cc2cc(F)ccc2C2=CCCC2)N(C)C1=O` [Example 46] the pIC50 (CyclinB1/CDK1) was 7.70, the pIC50 (CyclinA2/CDK2) was 7.70 and the pIC50 (CyclinE1/CDK2) was 6.46. It also gave a GI50 (NCI-H1048 cells) of 720 nM and a GI50 (OVCAR3 cells) of 790 nM.

Work on `Cc1nnc(-c2ccc(Cl)cc2C[C@H]2C(=O)NCCCCC=CC[C@H](N(C)C(=O)[C@@H](NC(=O)[C@@H]3C[C@@H](F)CN3C(=O)C3(C(F)(F)F)CCC3)C3CC3)C(=O)N[C@@H](CC(C)C)C(=O)N2C)o1` (single isomer, unassigned) [Example 117-P2] yielded a pIC50 (CyclinB1/CDK1) of 7.70, a pIC50 (CyclinA2/CDK2) of 7.22 and a pIC50 (CyclinE1/CDK2) of 6.80. The GI50 (NCI-H1048 cells) was 90 nM and the GI50 (OVCAR3 cells) was 60 nM.

Work on `CC(C)C[C@@H]1NC(=O)[C@@H](N(C)C(=O)[C@@H](NC(=O)[C@@H]2C[C@@H](F)CN2C(=O)C2(C(F)(F)F)CCC2)C2CC2)CC=CCCCCN(C)C(=O)[C@H](Cc2cc(F)ccc2-c2cnn(CC(F)F)c2)N(C)C1=O` [Example 83] yielded a pIC50 (CyclinB1/CDK1) of 7.70, a pIC50 (CyclinA2/CDK2) of 7.40 and a pIC50 (CyclinE1/CDK2) of 7.00. The GI50 (NCI-H1048 cells) was 20 nM and the GI50 (OVCAR3 cells) was 10 nM.

With `CC(C)C[C@@H]1NC(=O)[C@@H](N(C)C(=O)[C@H](CCC(=O)O)NC(=O)[C@@H]2C[C@@H](F)CN2C(=O)C2(C(F)(F)F)CC(F)(F)C2)CCCCCCCN(C)C(=O)[C@H](Cc2cc(Cl)ccc2-c2ccc(N3CCOCC3)cc2)N(C)C1=O` [Example 418] ({cBuCO(3,3-F2-1-CF3)}-[Pro(trans-4-F)]E[NMehhhLys(Me)]L[NMePhe(2-(4-MorPh),5-Cl)]; lactam 3-C) the pIC50 (CyclinB1/CDK1) was 7.70, the pIC50 (CyclinA2/CDK2) was 6.92 and the pIC50 (CyclinE1/CDK2) was 5.28. It also gave a GI50 (NCI-H1048 cells) of 1420 nM and a GI50 (OVCAR3 cells) of 1150 nM.

For `CCSc1ccc(-c2ccc(Cl)cc2C[C@H]2C(=O)N(C)CCCCCCC[C@H](N(C)C(=O)[C@@H](NC(=O)[C@@H]3C[C@@H](F)CN3C(=O)C3(C(F)(F)F)CC(F)(F)C3)C3CC3)C(=O)N[C@@H](CC(C)C)C(=O)N2C)cn1` [Example 181] ({cBuCO(3,3-F2-1-CF3)}-[Pro(trans-4-F)][Gly(cPr)][NMehhhLys(Me)]L[X147]; lactam 3-C), the pIC50 (CyclinB1/CDK1) was 7.70, the pIC50 (CyclinA2/CDK2) was 7.40 and the pIC50 (CyclinE1/CDK2) was 5.80. It also gave a GI50 (NCI-H1048 cells) of 240 nM and a GI50 (OVCAR3 cells) of 420 nM.

Work on `CC(C)C[C@@H]1NC(=O)[C@@H](N(C)C(=O)[C@@H](NC(=O)[C@@H]2C[C@@H](F)CN2C(=O)C2(C(F)(F)F)CC(F)(F)C2)C2CC2)CCCCCCCN(C)C(=O)[C@H](Cc2cc(F)ccc2C2=CC3COCC(C2)N3C(=O)C(C)C)N(C)C1=O` (stereo partly drawn) [Example 151] ({cBuCO(3,3-F2-1-CF3)}-[Pro(trans-4-F)][Gly(cPr)][NMehhhLys(Me)]L[X128]; lactam 3-C) yielded a pIC50 (CyclinB1/CDK1) of 7.70, a pIC50 (CyclinA2/CDK2) of 7.70 and a pIC50 (CyclinE1/CDK2) of 6.66. For the same compound, the GI50 (NCI-H1048 cells) was 10 nM and the GI50 (OVCAR3 cells) was 10 nM.

Compound `CC(C)C[C@@H]1NC(=O)[C@@H](N(C)C(=O)[C@@H](NC(=O)[C@@H]2C[C@@H](F)CN2C(=O)C2(C(F)(F)F)CC(F)(F)C2)C2CC2)CCCCCCCN(C)C(=O)[C@H](Cc2cc(Cl)ccc2-c2ccc(N3CCOC(C)(C)C3)cc2)N(C)C1=O` [Example 366] ({cBuCO(3,3-F2-1-CF3)}-[Pro(trans-4-F)][Gly(cPr)][NMehhhLys(Me)]L[X185]; lactam 3-C) has a pIC50 (CyclinB1/CDK1) of 7.70, a pIC50 (CyclinA2/CDK2) of 7.70 and a pIC50 (CyclinE1/CDK2) of 5.98. For the same compound, the GI50 (NCI-H1048 cells) was 20 nM and the GI50 (OVCAR3 cells) was 20 nM.

For `CC(C)C[C@@H]1NC(=O)[C@@H](N(C)C(=O)[C@@H](NC(=O)[C@@H]2C[C@@H](F)CN2C(=O)C2(C(F)(F)F)CC(F)(F)C2)C2CC2)CCCCCCCNC(=O)[C@H](Cc2cc(F)ccc2-c2cccnc2)N(C)C1=O` [Example 280] ({cBuCO(3,3-F2-1-CF3)}-[Pro(trans-4-F)][Gly(cPr)][NMe(hhhLys)]L[X176]; lactam 3-C), the pIC50 (CyclinB1/CDK1) was 7.70, the pIC50 (CyclinA2/CDK2) was 7.40 and the pIC50 (CyclinE1/CDK2) was 6.49. It also gave a GI50 (NCI-H1048 cells) of 10 nM and a GI50 (OVCAR3 cells) of 10 nM.

`C=C(C)c1ccc(Cl)cc1C[C@H]1C(=O)NCCCCCCC[C@H](N(C)C(=O)[C@@H](NC(=O)[C@@H]2C[C@@H](F)CN2C(=O)C2(C(F)(F)F)CC(F)(F)C2)C2CC2)C(=O)N[C@@H](CC(C)C)C(=O)N1C` [Example 61] ({cBuCO(3,3-F2-1-CF3)}-[Pro(trans-4-F)][Gly(cPr)][NMe(hhhLys)]L[X164]; lactam 3-C) was tested, and the pIC50 (CyclinB1/CDK1) was 7.70, the pIC50 (CyclinA2/CDK2) was 7.70 and the pIC50 (CyclinE1/CDK2) was 6.00. The GI50 (NCI-H1048 cells) was 20 nM and the GI50 (OVCAR3 cells) was 40 nM.
